≈ marks a conversion by molar mass, not a printed value. Structures can show the parent of a compound that is named as a salt.
What was measured:
Format in all cases: cell-based
Proteus 966 = experiment: agar dilution MIC, Proteus 966; settings: Mueller-Hinton agar, 10^5 CFU per point, about 18 hrs, 37° C., read-out: Minimum Inhibitory Concentrations
Experimental: (§1) The antibacterial activity of the compounds according to the present invention was evaluated against pathogenic strains of recent clinical isolation, both gram positive and gram negative. Minimum inhibitory concentration (MIC) were determined by the diluition method in agar, using a multipoint inoculator (Denley Techn. Ltd. England). As a culture medium Mueller-Hinton agar (DIFCO) in Petri capsules was used.
(§2) The bacterial inoculum, originating from an overnight broth was inoculated by a multipoint and was standardized in such a way as to obtain 10^5 colony forming units (CFU) per point.
(§3) After about 18 hrs incubation in a thermostat at 37° C., the bacterial growth was evaluated on each plate.

Staphylococcus 7 = experiment: agar dilution MIC, Staphylococcus 7; settings: Mueller-Hinton agar, 10^5 CFU per point, about 18 hrs, 37° C., read-out: Minimum Inhibitory Concentrations
Experimental: as §1, §2, §3

Staphylococcus 29 = experiment: agar dilution MIC, Staphylococcus 29; settings: Mueller-Hinton agar, 10^5 CFU per point, about 18 hrs, 37° C., read-out: Minimum Inhibitory Concentrations
Experimental: as §1, §2, §3

E. coli 15 = experiment: agar dilution MIC, E. coli 15; settings: Escherichia coli, Mueller-Hinton agar, 10^5 CFU per point, about 18 hrs, 37° C., read-out: Minimum Inhibitory Concentrations
Experimental: as §1, §2, §3

E. coli 963 = experiment: agar dilution MIC, E. coli 963; settings: Escherichia coli, Mueller-Hinton agar, 10^5 CFU per point, about 18 hrs, 37° C., read-out: Minimum Inhibitory Concentrations
Experimental: as §1, §2, §3

Klebsiella 4 = experiment: agar dilution MIC, Klebsiella 4; settings: Mueller-Hinton agar, 10^5 CFU per point, about 18 hrs, 37° C., read-out: Minimum Inhibitory Concentrations
Experimental: as §1, §2, §3

Klebsiella 5 = experiment: agar dilution MIC, Klebsiella 5; settings: Mueller-Hinton agar, 10^5 CFU per point, about 18 hrs, 37° C., read-out: Minimum Inhibitory Concentrations
Experimental: as §1, §2, §3

Salmonella 9 = experiment: agar dilution MIC, Salmonella 9; settings: Mueller-Hinton agar, 10^5 CFU per point, about 18 hrs, 37° C., read-out: Minimum Inhibitory Concentrations
Experimental: as §1, §2, §3

Salmonella 10 = experiment: agar dilution MIC, Salmonella 10; settings: Mueller-Hinton agar, 10^5 CFU per point, about 18 hrs, 37° C., read-out: Minimum Inhibitory Concentrations
Experimental: as §1, §2, §3

Enterobacter 41 = experiment: agar dilution MIC, Enterobacter 41; settings: Mueller-Hinton agar, 10^5 CFU per point, about 18 hrs, 37° C., read-out: Minimum Inhibitory Concentrations
Experimental: as §1, §2, §3

Enterobacter 2653 = experiment: agar dilution MIC, Enterobacter 2653; settings: Mueller-Hinton agar, 10^5 CFU per point, about 18 hrs, 37° C., read-out: Minimum Inhibitory Concentrations
Experimental: as §1, §2, §3

Citrobacter 118 = experiment: agar dilution MIC, Citrobacter 118; settings: Mueller-Hinton agar, 10^5 CFU per point, about 18 hrs, 37° C., read-out: Minimum Inhibitory Concentrations
Experimental: as §1, §2, §3

Proteus 25 = experiment: agar dilution MIC, Proteus 25; settings: Mueller-Hinton agar, 10^5 CFU per point, about 18 hrs, 37° C., read-out: Minimum Inhibitory Concentrations
Experimental: as §1, §2, §3

Citrobacter 120 = experiment: agar dilution MIC, Citrobacter 120; settings: Mueller-Hinton agar, 10^5 CFU per point, about 18 hrs, 37° C., read-out: Minimum Inhibitory Concentrations
Experimental: as §1, §2, §3

Staphylococcus 27 = experiment: agar dilution MIC, Staphylococcus 27; settings: Mueller-Hinton agar, 10^5 CFU per point, about 18 hrs, 37° C., read-out: Minimum Inhibitory Concentrations
Experimental: as §1, §2, §3

Pseudomonas 19 = experiment: agar dilution MIC, Pseudomonas 19; settings: Mueller-Hinton agar, 10^5 CFU per point, about 18 hrs, 37° C., read-out: Minimum Inhibitory Concentrations
Experimental: as §1, §2, §3

Pseudomonas 2437 = experiment: agar dilution MIC, Pseudomonas 2437; settings: Mueller-Hinton agar, 10^5 CFU per point, about 18 hrs, 37° C., read-out: Minimum Inhibitory Concentrations
Experimental: as §1, §2, §3

Compound	MIC (Proteus 966) [µg/mL]	MIC (Staphylococcus 7) [µg/mL]	MIC (Staphylococcus 29) [µg/mL]	MIC (E. coli 15) [µg/mL]	MIC (E. coli 963) [µg/mL]	MIC (Klebsiella 4) [µg/mL]	MIC (Klebsiella 5) [µg/mL]	MIC (Salmonella 9) [µg/mL]	MIC (Salmonella 10) [µg/mL]	MIC (Enterobacter 41) [µg/mL]	MIC (Enterobacter 2653) [µg/mL]	MIC (Citrobacter 118) [µg/mL]	MIC (Proteus 25) [µg/mL]	MIC (Citrobacter 120) [µg/mL]	MIC (Staphylococcus 27) [µg/mL]	MIC (Pseudomonas 19) [µg/mL]	MIC (Pseudomonas 2437) [µg/mL]
CCNCC1CCN(c2c(F)cc3c(=O)c(C(=O)O)cn4c3c2OCC4C)C1 (stereo not drawn) [E.P. 0106489 ex. 20, reference compound]	2 (≈ 5.14 µM)	0.25 (≈ 0.642 µM)	0.5 (≈ 1.28 µM)	0.5 (≈ 1.28 µM)	2 (≈ 5.14 µM)	0.5 (≈ 1.28 µM)	2 (≈ 5.14 µM)	1 (≈ 2.57 µM)	1 (≈ 2.57 µM)	1 (≈ 2.57 µM)	0.25 (≈ 0.642 µM)	4 (≈ 10.3 µM)	1 (≈ 2.57 µM)	2 (≈ 5.14 µM)	0.25 (≈ 0.642 µM)	64 (≈ 164 µM)	128 (≈ 329 µM)
CCNCC1CCN(c2c(F)cc3c(=O)c(C(=O)O)cn4c3c2SCC4C)C1 (stereo not drawn) [ex. 1, 10-3-[(ethylamino)methyl]1-pyrrolidinyl]-9 fluoro-2,3-dihydro-3-methyl-7-oxo-7H-pyrido [1,2,3 de][1,4]benzothiazine-6-carboxylic acid hydrochloride]	4	0.12	0.25	0.5	2	0.25	2	0.5	0.5	0.5	0.25	2	4	4	0.25	32	64
CCNCC1CCN(c2c(F)cc3c(=O)c(C(=O)O)cn4c3c2SCC4)C1 (stereo not drawn) [ex. 2, 10-[3[(ethylamino)methyl]-1-pyrrolidinyl]-9-fluoro-2,3-dihydro-7-oxo-7H-pyr ido [1,2,3 de][1,4]benzothiazine-6-carboxylic acid hydrochloride]	8	1	2	2	8	2	8	4	2	4	1	8	8	8	8	128	> 128
